According to paper PMC6620029 (Combinatorial chemistry & high throughput screening, 2009):

Target: human serum albumin (HSA) (Homo sapiens, UniProt P02768)
Experiment: 1D 1H NMR line broadening with HSA
Type: binding

Sequence of human serum albumin (HSA) (P02768 25-609): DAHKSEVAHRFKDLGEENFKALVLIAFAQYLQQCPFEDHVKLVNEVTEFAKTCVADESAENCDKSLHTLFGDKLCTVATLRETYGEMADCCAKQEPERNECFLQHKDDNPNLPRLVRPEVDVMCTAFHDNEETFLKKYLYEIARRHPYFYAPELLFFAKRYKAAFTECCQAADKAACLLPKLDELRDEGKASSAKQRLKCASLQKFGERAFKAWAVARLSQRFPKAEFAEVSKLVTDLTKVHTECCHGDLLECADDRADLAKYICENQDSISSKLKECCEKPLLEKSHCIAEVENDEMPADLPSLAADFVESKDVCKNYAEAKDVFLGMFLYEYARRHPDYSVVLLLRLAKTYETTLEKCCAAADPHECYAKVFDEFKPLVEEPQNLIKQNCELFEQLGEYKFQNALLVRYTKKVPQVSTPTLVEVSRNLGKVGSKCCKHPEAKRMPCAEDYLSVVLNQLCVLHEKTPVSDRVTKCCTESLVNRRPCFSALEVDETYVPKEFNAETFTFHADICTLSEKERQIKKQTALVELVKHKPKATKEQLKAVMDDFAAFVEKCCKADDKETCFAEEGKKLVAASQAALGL

Compound: Cc1cc(=O)oc2cc(O)ccc12 [7-hydroxy-4-methyl coumarin]
- 1D 1H NMR line broadening with HSA; competition with warfarin: The NMR resonances of the coumarin-analogue broaden (Fig (6a, b)) from the addition of HSA
